Results from PubChem BioAssay (NCI).
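All cell lines were grown in 96-well plates and treated with compound for 48 hours. The concentration for 50% growth inhibition is given as GI50. TGI marks complete inhibition of growth.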

What was measured:
Assay in all cases: growth of human tumour cells (NCI), 48 h
UO-31 renal = system: UO-31 renal
SR leukemia = system: SR leukemia
HOP-62 NSCLC = system: HOP-62 NSCLC
HT29 colon = system: HT29 colon
SF-268 CNS = system: SF-268 CNS
IGROV1 ovarian = system: IGROV1 ovarian
SK-OV-3 ovarian = system: SK-OV-3 ovarian
NCI/ADR-RES ovarian = system: NCI/ADR-RES ovarian
A498 renal = system: A498 renal
NCI-H460 lung = system: NCI-H460 lung
SNB-75 CNS = system: SNB-75 CNS
OVCAR-3 ovarian = system: OVCAR-3 ovarian
NCI-H226 lung = system: NCI-H226 lung
HOP-92 NSCLC = system: HOP-92 NSCLC
U251 CNS = system: U251 CNS
OVCAR-4 ovarian = system: OVCAR-4 ovarian
SK-MEL-5 melanoma = system: SK-MEL-5 melanoma
HCC-2998 colon = system: HCC-2998 colon
UACC-257 melanoma = system: UACC-257 melanoma
HCT-15 colon = system: HCT-15 colon
OVCAR-5 ovarian = system: OVCAR-5 ovarian
M14 melanoma = system: M14 melanoma
MCF7 breast = system: MCF7 breast
DU-145 prostate = system: DU-145 prostate
MDA-MB-231 breast = system: MDA-MB-231 breast
KM12 colon = system: KM12 colon
NCI-H522 lung = system: NCI-H522 lung
RPMI-8226 leukemia = system: RPMI-8226 leukemia
SK-MEL-28 melanoma = system: SK-MEL-28 melanoma
SN12C renal = system: SN12C renal
T-47D breast = system: T-47D breast
SK-MEL-2 melanoma = system: SK-MEL-2 melanoma
TK-10 renal = system: TK-10 renal
LOX IMVI melanoma = system: LOX IMVI melanoma
COLO 205 colon = system: COLO 205 colon
CAKI-1 renal = system: CAKI-1 renal
OVCAR-8 ovarian = system: OVCAR-8 ovarian
HCT-116 colon = system: HCT-116 colon
MDA-MB-435 = system: MDA-MB-435
SW-620 colon = system: SW-620 colon
HS 578T breast = system: HS 578T breast
SF-539 CNS = system: SF-539 CNS
SF-295 CNS = system: SF-295 CNS
ACHN renal = system: ACHN renal
BT-549 breast = system: BT-549 breast
SNB-19 CNS = system: SNB-19 CNS
786-0 renal = system: 786-0 renal
A549 NSCLC = system: A549 NSCLC
RXF 393 renal = system: RXF 393 renal
MALME-3M melanoma = system: MALME-3M melanoma

Work on `ClC1=NC(Cl)C(Cl)=N/C1=N\c1ncn[nH]1` (stereo not given) yielded a GI50 (UO-31 renal) of 1.68 µM, a TGI (UO-31 renal) of 3.25 µM and a GI50 (SR leukemia) of 1.3 µM. For the same molecule, the TGI (SR leukemia) was 3.63 µM, the GI50 (HOP-62 NSCLC) was 2.3 µM and the TGI (HOP-62 NSCLC) was 5.11 µM. It also gave a GI50 (HT29 colon) of 2.03 µM, a TGI (HT29 colon) of 3.9 µM and a GI50 (SF-268 CNS) of 2.24 µM. For the same molecule, the TGI (SF-268 CNS) was 5.22 µM, the GI50 (IGROV1 ovarian) was 2.23 µM and the TGI (IGROV1 ovarian) was 4.63 µM. The GI50 (SK-OV-3 ovarian) was 15.5 µM, the TGI (SK-OV-3 ovarian) was 29 µM and the GI50 (NCI/ADR-RES ovarian) was 3.15 µM. For the same molecule, the TGI (NCI/ADR-RES ovarian) was 8.79 µM, the GI50 (A498 renal) was 17.8 µM and the TGI (A498 renal) was 33.4 µM. For the same molecule, the GI50 (NCI-H460 lung) was 3.65 µM, the TGI (NCI-H460 lung) was 14.9 µM and the GI50 (SNB-75 CNS) was 5.64 µM. For the same molecule, the TGI (SNB-75 CNS) was 20.7 µM, the GI50 (OVCAR-3 ovarian) was 1.95 µM and the TGI (OVCAR-3 ovarian) was 3.4 µM. The GI50 (NCI-H226 lung) was 3.27 µM, the TGI (NCI-H226 lung) was 15.9 µM and the GI50 (HOP-92 NSCLC) was 1.59 µM. The TGI (HOP-92 NSCLC) was 3.1 µM, the GI50 (U251 CNS) was 4.88 µM and the TGI (U251 CNS) was 17 µM. It also gave a GI50 (OVCAR-4 ovarian) of 1.89 µM, a TGI (OVCAR-4 ovarian) of 3.61 µM and a GI50 (SK-MEL-5 melanoma) of 5.57 µM. The TGI (SK-MEL-5 melanoma) was 18.7 µM, the GI50 (HCC-2998 colon) was 2.17 µM and the TGI (HCC-2998 colon) was 4.28 µM. It also gave a GI50 (UACC-257 melanoma) of 1.7 µM, a TGI (UACC-257 melanoma) of 4.25 µM and a GI50 (HCT-15 colon) of 1.95 µM. For the same molecule, the TGI (HCT-15 colon) was 4.68 µM, the GI50 (OVCAR-5 ovarian) was 1.71 µM and the TGI (OVCAR-5 ovarian) was 3.27 µM. For the same molecule, the GI50 (M14 melanoma) was 2.64 µM, the TGI (M14 melanoma) was 7.15 µM and the GI50 (MCF7 breast) was 1.78 µM. The TGI (MCF7 breast) was 4.15 µM, the GI50 (DU-145 prostate) was 1.9 µM and the TGI (DU-145 prostate) was 3.43 µM. It also gave a GI50 (MDA-MB-231 breast) of 1.79 µM, a TGI (MDA-MB-231 breast) of 3.55 µM and a GI50 (KM12 colon) of 2.27 µM. The TGI (KM12 colon) was 4.79 µM, the GI50 (NCI-H522 lung) was 1.68 µM and the TGI (NCI-H522 lung) was 3.55 µM. It also gave a GI50 (RPMI-8226 leukemia) of 1.97 µM, a TGI (RPMI-8226 leukemia) of 4.43 µM and a GI50 (SK-MEL-28 melanoma) of 1.95 µM. For the same molecule, the TGI (SK-MEL-28 melanoma) was 4.04 µM, the GI50 (SN12C renal) was 1.76 µM and the TGI (SN12C renal) was 3.31 µM. For the same molecule, the GI50 (T-47D breast) was 1.9 µM, the TGI (T-47D breast) was 3.91 µM and the GI50 (SK-MEL-2 melanoma) was 2.61 µM. For the same molecule, the TGI (SK-MEL-2 melanoma) was 5.63 µM, the GI50 (TK-10 renal) was 1.92 µM and the TGI (TK-10 renal) was 3.44 µM. The GI50 (LOX IMVI melanoma) was 1.89 µM, the TGI (LOX IMVI melanoma) was 3.72 µM and the GI50 (COLO 205 colon) was 2.28 µM. It also gave a TGI (COLO 205 colon) of 4.55 µM, a GI50 (CAKI-1 renal) of 1.78 µM and a TGI (CAKI-1 renal) of 3.32 µM. It also gave a GI50 (OVCAR-8 ovarian) of 2.27 µM, a TGI (OVCAR-8 ovarian) of 6.05 µM and a GI50 (HCT-116 colon) of 1.76 µM. The TGI (HCT-116 colon) was 3.48 µM, the GI50 (MDA-MB-435) was 2.24 µM and the TGI (MDA-MB-435) was 6.01 µM. It also gave a GI50 (SW-620 colon) of 2.06 µM, a TGI (SW-620 colon) of 4.3 µM and a GI50 (HS 578T breast) of 14.3 µM. It also gave a TGI (HS 578T breast) of 61 µM, a GI50 (SF-539 CNS) of 2.22 µM and a TGI (SF-539 CNS) of 5.6 µM. The GI50 (SF-295 CNS) was 13.4 µM, the TGI (SF-295 CNS) was 28.5 µM and the GI50 (ACHN renal) was 1.88 µM. For the same molecule, the TGI (ACHN renal) was 3.48 µM, the GI50 (BT-549 breast) was 2.45 µM and the TGI (BT-549 breast) was 5.42 µM. The GI50 (SNB-19 CNS) was 11.8 µM, the TGI (SNB-19 CNS) was 25.4 µM and the GI50 (786-0 renal) was 3.41 µM. The TGI (786-0 renal) was 11.4 µM, the GI50 (A549 NSCLC) was 17.1 µM and the TGI (A549 NSCLC) was 34.4 µM. For the same molecule, the GI50 (RXF 393 renal) was 1.71 µM, the TGI (RXF 393 renal) was 3.2 µM and the GI50 (MALME-3M melanoma) was 1.82 µM. The TGI (MALME-3M melanoma) was 3.7 µM.
